The values that follow come from patent EP4667464A1 (Cyrus Therapeutics Inc., priority 2023, dated 2024).

One test has as its target T1, SOS1 (Homo sapiens, UniProt Q07889).
T1 construct: HIS-SOS1cat (160 nM; Cytoskeleton, US); His (N); purchased Cytoskeleton
T1 sequence (Q07889 564-1049 limits assumed): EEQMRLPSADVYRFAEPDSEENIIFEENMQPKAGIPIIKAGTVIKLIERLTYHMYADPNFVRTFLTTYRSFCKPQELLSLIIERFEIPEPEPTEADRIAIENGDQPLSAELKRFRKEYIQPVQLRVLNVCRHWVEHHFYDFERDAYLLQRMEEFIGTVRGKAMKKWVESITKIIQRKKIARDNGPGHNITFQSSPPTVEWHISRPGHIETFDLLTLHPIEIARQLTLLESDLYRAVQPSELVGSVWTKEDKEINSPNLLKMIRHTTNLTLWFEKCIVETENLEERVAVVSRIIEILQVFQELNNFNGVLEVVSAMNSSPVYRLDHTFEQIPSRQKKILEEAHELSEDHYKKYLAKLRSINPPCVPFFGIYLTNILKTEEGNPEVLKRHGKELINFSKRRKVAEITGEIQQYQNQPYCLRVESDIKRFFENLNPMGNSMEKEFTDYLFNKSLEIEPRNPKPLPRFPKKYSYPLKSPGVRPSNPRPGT
In words: SOS-catalyzed nucleotide exchange assay (HTRF, SOS1-mediated GTP loading of KRAS G12D). The class given is biochemical. (TR-FRET usually uses a lanthanide donor and a delayed reading to cut background.)

In another test the target is T2, KRAS G12C::SOS1 (Homo sapiens, UniProt Q07889).
T2 construct: purchased CISBIO 64KRASG12PEH
T2 sequence (Q07889 1-1333): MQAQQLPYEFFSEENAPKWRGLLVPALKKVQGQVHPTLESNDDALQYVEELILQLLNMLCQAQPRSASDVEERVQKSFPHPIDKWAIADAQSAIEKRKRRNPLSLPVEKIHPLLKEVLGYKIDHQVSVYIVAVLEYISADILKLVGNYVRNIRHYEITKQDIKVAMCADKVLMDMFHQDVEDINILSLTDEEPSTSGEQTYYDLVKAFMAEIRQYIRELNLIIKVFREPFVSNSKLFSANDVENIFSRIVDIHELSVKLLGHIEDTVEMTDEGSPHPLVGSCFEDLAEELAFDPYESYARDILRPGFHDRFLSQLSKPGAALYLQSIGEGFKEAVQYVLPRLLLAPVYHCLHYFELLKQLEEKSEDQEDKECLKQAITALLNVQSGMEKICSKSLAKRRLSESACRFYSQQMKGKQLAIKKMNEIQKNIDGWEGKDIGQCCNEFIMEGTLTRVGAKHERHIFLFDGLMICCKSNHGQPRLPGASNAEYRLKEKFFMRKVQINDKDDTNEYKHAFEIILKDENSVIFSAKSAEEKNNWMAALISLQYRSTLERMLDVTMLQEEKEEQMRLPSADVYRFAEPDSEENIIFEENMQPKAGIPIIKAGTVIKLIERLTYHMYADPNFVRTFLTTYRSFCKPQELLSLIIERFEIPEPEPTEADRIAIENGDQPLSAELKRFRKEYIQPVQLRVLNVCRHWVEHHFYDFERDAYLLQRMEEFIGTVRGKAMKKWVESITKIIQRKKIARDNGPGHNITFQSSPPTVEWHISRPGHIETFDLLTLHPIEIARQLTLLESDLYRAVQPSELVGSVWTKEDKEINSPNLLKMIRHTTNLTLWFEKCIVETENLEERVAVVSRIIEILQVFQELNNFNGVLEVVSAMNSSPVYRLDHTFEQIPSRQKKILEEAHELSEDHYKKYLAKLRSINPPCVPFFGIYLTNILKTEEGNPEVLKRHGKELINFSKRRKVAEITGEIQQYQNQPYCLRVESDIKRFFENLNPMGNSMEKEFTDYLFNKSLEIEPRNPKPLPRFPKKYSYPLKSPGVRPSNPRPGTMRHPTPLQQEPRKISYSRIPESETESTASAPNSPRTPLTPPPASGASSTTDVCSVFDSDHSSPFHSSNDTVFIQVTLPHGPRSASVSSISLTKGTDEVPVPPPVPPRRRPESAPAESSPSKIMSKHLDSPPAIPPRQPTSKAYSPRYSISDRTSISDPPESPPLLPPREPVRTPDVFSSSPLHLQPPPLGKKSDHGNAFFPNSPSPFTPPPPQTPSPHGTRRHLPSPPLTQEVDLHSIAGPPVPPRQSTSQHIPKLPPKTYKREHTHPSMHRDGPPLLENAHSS
In words: KRAS G12C::SOS1 protein-protein interaction (PPI) inhibition assay (HTRF). Format: binding. The essentials:
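Compounds, at eight 3-fold dilutions from 3 µM, were mixed with GTP-loaded Tag1-KRAS G12C, Tag2-SOS1 and a terbium-cryptate donor plus XL665 acceptor antibody pair. After 2 h at room temperature, time-resolved FRET reported the KRAS–SOS1 interaction.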

Test [1] relates to lung cancer cell line NCI-H358 having the KRAS G12C variant. Put plainly: Cancer cell growth inhibition, 3D spheroids (CellTiter-Glo 3D). The class given is cell-based. The following applies: read-out: H358 cell viability. The procedure, abridged: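 NCI-H358 (KRAS G12C) spheroids lysed with CellTiter-Glo 3D for 30 min with shaking after 10 min at room temperature. Growth in compound-treated wells expressed relative to untreated wells set to 100%.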
Background: In ATP-based viability assays light output follows the ATP content of the culture.

Where [2] appears, read: GST-KRAS G12D, HIS-SOS1cat, compound 128 pM to 10 µM; read-out: SOS-catalyzed nucleotide exchange assay.
Setting [3] is: 8 concentrations from 3 µM, three replicates; read-out: KRAS G12C::SOS1 PPI.
The mark [4] stands for this setting: Homo sapiens, NCI-H358, 120 h, 3D spheroids, 0.002-10 µM, 5 days.

Read-outs that look alike come from different tables or passages of the source.

With `Cc1cc(C(=O)N[C@H](C)c2cccc(C(F)F)c2F)nn(-c2cncc(-c3cnnn3C)c2)c1=O` [Example 1-15, N-[(1R)-1-[3-(difluoromethyl)-2-fluoro-phenyl]ethyl]-5-methyl-1-[5-(3-methyltriazol-4-yl)-3-pyridyl]-6-oxo-pyridazine-3-carboxamide], the IC50 at SOS1 (setting [2]) is below 50 nM; on KRAS G12C::SOS1 (setting [3]) it was below 50 nM; in test [1] (setting [4]) it was below 1000 nM.

As to `C[C@@H](NC(=O)c1ccc(=O)n(-c2cncc(-c3cnnn3C3CCC3)c2)n1)c1cccc(C(F)(F)F)c1F` [Example 1-54, N-[(1R)-1-[2-fluoro-3-(trifluoromethyl)phenyl]ethyl]-1-[5-(1-cyclobutyl-1H-1,2,3-triazol-5-yl)-3-pyridyl]-6-oxo-pyridazine-3-carboxamide], the IC50 on SOS1 (setting [2]) was below 50 nM; on KRAS G12C::SOS1 (setting [3]), 50 to 150 nM; in test [1] (setting [4]), below 1000 nM.

Consider `C[C@@H](NC(=O)c1cc(C2CC2)c(=O)n(-c2cncc(-c3cnnn3C)c2)c1)c1cccc(C(F)(F)F)c1F` [Example 7, (R)-3-cyclopropyl-N-(1-(2-fluoro-3-(trifluoromethyl)phenyl)ethyl)-5'-(1-methyl-1H-1,2,3-triazol-5-yl)-2-oxo-2H-[1,3'-bipyridine]-5-carboxamide], for which the IC50 was below 50 nM on SOS1 (setting [2]), below 50 nM at KRAS G12C::SOS1 (setting [3]) and below 1000 nM in test [1] (setting [4]).

As to `C[C@@H](NC(=O)c1ccc(=O)n(-c2cnc(N3CCOCC3)c(-c3cnnn3C)c2)n1)c1cccc(C(F)(F)F)c1F` [Example 1-46, N-{(R)-1-[2-fluoro-3-(trifluoromethyl)phenyl]ethyl}-1-[5-(1-methyl-1H-1,2,3-triazol-5-yl)-6-morpholino-3-pyridyl]-6-oxo-1,6-dihydropyridazine-3-carboxamide], the IC50 was 50 to 150 nM at SOS1 (read-out: SOS-catalyzed nucleotide exchange assay; GST-KRAS G12D, HIS-SOS1cat, compound 128 pM to 10 µM); 50 to 150 nM at KRAS G12C::SOS1 (read-out: KRAS G12C::SOS1 PPI; 8 concentrations from 3 µM, three replicates); below 1000 nM in test [1] (Homo sapiens, NCI-H358, 120 h).

As for `CC(=O)c1cc(C(=O)N[C@H](C)c2cccc(C(F)(F)F)c2F)nn(-c2cncc(-c3cnnn3C)c2)c1=O` [Example 1-62, N-{(R)-1-[2-fluoro-3-(trifluoromethyl)phenyl]ethyl}-5-acetyl-1-[5-(1-methyl-1H-1,2,3-triazol-5-yl)-3-pyridyl]-6-oxo-1,6-dihydropyridazine-3-carboxamide], the IC50 on SOS1 (setting [2]) was 50 to 150 nM; at KRAS G12C::SOS1 (setting [3]), below 50 nM; in test [1] (setting [4]) it was below 1000 nM.

`Cc1c([C@@H](C)NC(=O)c2cc(C)c(=O)n(-c3cncc(-c4cnnn4C)c3)n2)cc(N)cc1C(F)(F)F` [Example 2-6, N-[(1R)-1-[5-amino-2-methyl-3-(trifluoromethyl)phenyl]ethyl]-5-methyl-1-[5-(3-methyltriazol-4-yl)-3-pyridyl]-6-oxo-pyridazine-3-carboxamide]: the IC50 at SOS1 (setting [2]) was below 50 nM; on KRAS G12C::SOS1 (setting [3]) it was below 50 nM; in test [1] (setting [4]), below 1000 nM.

On to `CC(C)n1nncc1-c1cncc(-n2nc(C(=O)N[C@H](C)c3cccc(C(F)(F)CO)c3F)ccc2=O)c1` [Example 1-52, N-[(1R)-1-[3-(1,1-difluoro-2-hydroxy-ethyl)-2-fluoro-phenyl]ethyl]-1-[5-(1-isopropyl-1H-1,2,3-triazol-5-yl)-3-pyridyl]-6-oxo-pyridazine-3-carboxamide], for which the IC50 on SOS1 (setting [2]) was below 50 nM; on KRAS G12C::SOS1 (setting [3]), 50 to 150 nM; in test [1] (setting [4]), below 1000 nM.

In the case of `C[C@@H](NC(=O)c1ccc(=O)n(-c2cncc(-c3cnnn3C)c2)c1)c1cccc(C(F)(F)F)c1F` [Example 1-24, N-[(1R)-1-[2-fluoro-3-(trifluoromethyl)phenyl]ethyl]-1-[5-(3-methyltriazol-4-yl)-3-pyridyl]-6-oxo-pyridine-3-carboxamide], the IC50 at SOS1 (setting [2]) was below 50 nM; on KRAS G12C::SOS1 (setting [3]), below 50 nM; in test [1] (setting [4]), below 1000 nM.

Take “N-[(1R)-1-[3-(1,1-difluoro-2-hydroxy-ethyl)-2-fluoro-phenyl]ethyl]-1-[5-(2-methylpyrazol-3-yl)-3-pyridyl]-6-oxo-pyridazine-3-carboxamide [Example 1-16]”: the IC50 was 50 to 150 nM at SOS1 (setting [2]); 50 to 150 nM at KRAS G12C::SOS1 (setting [3]); below 1000 nM in test [1] (3D spheroids, 0.002-10 µM, 5 days).
